# Assay results as given in patent US11337916B2, “Myrciaria dubia fruit extracts rich in organic acids, cosmetic compositions comprising same and cosmetic uses thereof” (ISP INVESTMENTS LLC, priority 2018, dated 2022).
# How the values were obtained:
# [1] = tested on: PFKFB3 (6-phosphofructo-2-kinase/fructose-2,6-biphosphatase 3); assay: PFKFB3 expression on reconstructed epidermis in tired condition (immunofluorescence); assay type: cell-based, human; details: rotenone alone
# Text: The aim of this study is to determine the level of expression of PFKFB3 (6-phosphofructo-2-kinase/fructose-2,6-biphosphatase 3) in a model of “tired” reconstructed human skin.
# PFKFB3 is involved in the glycolysis process. It is an inducible enzyme that is expressed by the active epithelial cells of the epidermis. It enables the activation of the enzyme PFK-1 (phosphofructokinase-1), which limits this glycolysis process.
# To obtain “tired” skin, this is reconstructed using adult donor keratinocytes and a respiratory chain inhibitor (rotenone) to create a lack of energy (see example 6). These cultures are treated during reconstruction with 0.1% E1 Myrciaria extract (volume/volume), i.e. diluted 1/1000th in the culture medium.
# Protocol: On day 12 of epidermal reconstruction, rotenone is added to the culture medium. A control condition is maintained without adding rotenone but changing the culture medium anyway. After 3 h incubation with the inhibitor, the medium is changed to a new medium containing 0.1% E1 Myrciaria extract and the epidermises are incubated again for 48 h. […]
# For staining, the cuts are dewaxed by xylene and ethanol baths and then rinsed. […] The cuts are then examined under an Epi-fluorescence microscope (Zeiss Axiovert 200M microscope). A quantification of the fluorescence, using Volocity® image analysis software (PerkinElmer, Inc.), is performed from the obtained photographs.
# reconstructed epidermis = assay: Morphology of reconstructed epidermis in tired condition (rotenone), haematoxylin-eosin staining; assay type: cell-based, human; details: rotenone added on day 12 of reconstruction, 3 h incubation
# Text: The aim of this study is to create a model of reconstructed “tired” human skin. To do this, the skin is reconstructed using adult donor keratinocytes and a respiratory chain inhibitor (rotenone) to create a lack of energy.
# The use of a respiratory chain inhibitor such as rotenone creates mitochondrial dysfunction, including ATP depletion. Therefore, lack of cellular energy was equated in our model to a state of cellular fatigue (Han G et al, The mitochondrial complex I inhibitor rotenone induces endoplasmic reticulum stress and activation of GSK-3β in cultured rat retinal cells, Invest Ophthalmol Vis Sci. 31; 55(9):5616-28, 2014). These cultures are treated during the reconstruction with 0.1% E1 Myrciaria extract (volume/volume), i.e. diluted 1/1000th or 1% (volume/volume), i.e. diluted 1/100th in the culture medium.
# Protocol: On day 12 of epidermal reconstruction, rotenone is added to the culture medium. A control condition is maintained without adding rotenone but changing the culture medium anyway. After 3 h incubation with the inhibitor, the medium is changed to a new medium containing 0.1% E1 Myrciaria extract and the epidermis is incubated again for 48 h. The placebo condition contains PBS (phosphate buffer saline) in the culture medium. The morphology of the skin is then observed by a Haematoxylin-Eosin (HE) staining. […]
# creatine kinase = assay: Creatine kinase activity on "tired" dermal fibroblast cultures; assay type: cell-based; details: 0.1% E1 extract or vitamin C at 4 μg/mL, two days of treatment
# Procedure: The aim of this study is to determine the level of creatine kinase activity in dermal fibroblast cultures. The function of this enzyme is to catalyse the conversion of creatine to phosphocreatine, thus providing a rapidly usable energy reserve. This activity measurement is performed on cultures of “tired” dermal fibroblasts treated with 0.1% E1 Myrciaria extract (volume/volume), i.e. diluted 1/1000th in the culture medium. Protocol: Dermal fibroblast cultures are “tired” by a few replications (cells used between passes 15 and 20) and are fed with a nutrient-poor medium (without glucose) for 3 days. These cultures are treated with 0.1% E1 Myrciaria extract, or with vitamin C at 4 μg/mL as a positive control, from the second day of stress and for the remaining two days of stress. Two days after the start of treatment, a measurement of creatine kinase activity is performed using a kit (Abcam—ref: ab155901). For this purpose, the fibroblasts are detached with the CK buffer contained in the kit, recovered and centrifuged at 4000 g for 5 min at 4° C. The activity is then measured for each sample according to the kit protocol. Kinetics are obtained by a colorimetric reading with the Synergy 2 spectrometer (Biotek) coupled to Gen5 software.
SMILES,PFKFB3 expression change compared to unstressed epidermises [1],morphology of reconstructed epidermis versus control (HE staining) (reconstructed epidermis),"creatine kinase activity increase compared to untreated ""tired"" cells (creatine kinase)"
C=C(C)[C@H]1Cc2c(ccc3c2O[C@@H]2COc4cc(OC)c(OC)cc4[C@@H]2C3=O)O1 [rotenone],−20%,thinner epidermis than the control and a more damaged basal layer,
O=C1O[C@H]([C@@H](O)CO)C(O)=C1O [vitamin C],,,+44%
